Source: a melting point compilation (Tetko et al.; mined from patent text by program, amines drawn as free bases though some values may be those of a salt)

First: CC(Cl)(Cl)C(NC(=O)c1ccc(Cl)cc1)Nc1c(Nc2cccnc2)c(=O)c1=O (stereo not drawn)
Second: CC(CC#N)(C(=O)NCC#N)c1ccc(C(=O)Nc2cn3cc(Cl)ccc3n2)cc1 (stereo not drawn)
The melting point of the first is lower: 201 to 202 °C for the first, 268 to 269 °C for the second.

Compared with `CCOC(=S)c1c(CC)nc2ccccn12`, `Oc1cccc2cc3ccccc3nc12` is higher in melting point: 71 to 73 °C for the first, 115 °C for the second.

First: CCOC(=O)C(=O)Nc1cc(C(F)(F)F)cc(C(F)(F)F)c1[N+](=O)[O-]
Second: O=c1cc(C(F)(F)F)cc(-c2ccc(C(F)(F)F)cc2)[nH]1
The melting point of the first is lower: 115 °C for the first, 203 to 204 °C for the second.

First: CC(=O)N1CC(CCN2CCC(c3ccc(C(F)(F)F)cc3)CC2)c2ccccc21 (stereo not drawn)
Second: C(=C1\CN2CCC1CC2)/N1c2ccccc2Sc2ccccc21
The melting point of the first is lower: 98 to 100 °C for the first, 149 to 153 °C for the second.

First: Cc1cccnc1NC(=O)C(C)(C)C
Second: COC(=O)c1ncn2c1CN(C)C(=O)c1ccccc1-2
The melting point of the first is lower: 90 to 92 °C for the first, 212 to 214 °C for the second.

First: CC(=NNc1ccccc1)c1c(-c2ccccc2)noc1C
Second: O=C1c2ccccc2-c2nc3ccc(O)cc3c(Cl)c21
The melting point of the first is lower: 129 to 133 °C for the first, 253 °C for the second.

First: CCOC(=O)C(C)(C)NC(=O)c1ccc(S(=O)(=O)N2C(=O)C(NC)(c3ccccc3Cl)c3cc(Cl)ccc32)c(OC)c1 (stereo not drawn)
Second: COc1ccc(C(=O)Nc2cc(NC(=O)c3cccc(N(C)C)c3)ccc2F)cc1OC
The melting point of the first is lower: 141 °C for the first, 187 to 188 °C for the second.

First: CCC(OC)(c1cccc(O)c1)c1nccs1 (stereo not drawn)
Second: CN(C(=O)N1CCCC1)c1cccc2cc(-c3nccs3)[nH]c12
The melting point of the first is lower: 101 to 103 °C for the first, 182 °C for the second.

`COc1cc(COc2nn(Cc3ccccc3)cc2C(N)=O)ccc1OCc1nc(-c2ccco2)oc1C` and `O=C(O)c1ccc(Cn2cc(C3c4ccc(C(F)(F)F)cc4C=Cc4cc(C(F)(F)F)ccc43)c(=S)[nH]c2=O)o1` cannot be ordered by melting point: 160 to 161 °C for the first, 159 to 162 °C for the second.

First: ClCc1ccccc1COc1ccc(C=Cc2ccc3ccccc3n2)cc1
Second: C=Cc1cccc(-n2ncc(-c3ccc(S(C)(=O)=O)cc3)c(-c3ccc(F)cc3)c2=O)c1
The melting point of the first is lower: 127 to 128 °C for the first, 182 to 183 °C for the second.

First: CC(C)(C)C(=O)Oc1ccc(S(=O)(=O)c2ccc(S(N)(=O)=O)s2)cc1
Second: CC1(C)OC(=O)C(OC2CCc3ccccc32)=C1c1ccc(S(C)(=O)=O)cc1 (stereo not drawn)
The melting point of the first is higher: 192 to 195 °C for the first, 128 to 129 °C for the second.

First: O=C(NO)c1cc(Oc2ccc(C(F)(F)F)cc2Cl)ccc1O
Second: CCOC(=O)Cc1ccc(NCCNC(=O)C2Cc3ccccc3N2S(=O)(=O)c2ccc(-c3cc(C(F)(F)F)ccc3Cl)cc2)cc1 (stereo not drawn)
The melting point of the first is higher: 188 to 191 °C for the first, 55 to 63 °C for the second.

Compared with `O=C1Nc2ccccc2N2CCN(Cc3ccncc3)CC12` (stereo not drawn), `O=C(Nc1cccnc1)N1CCc2cc(I)ccc21` is lower in melting point: 253 to 255 °C for the first, 210 to 215 °C for the second.

First: CCOC(=O)c1sccc1S(N)(=O)=O
Second: CCOC(=O)COc1cc2c(c(Cl)c1Cl)C(=O)C(CC)=C2
The melting point of the first is lower: 136 °C for the first, 141 to 143 °C for the second.

First: NC(=O)NC(=O)c1ccncc1
Second: NCCC(=O)NCCCCCNC(=O)Cc1cccc(O)c1
The melting point of the first is higher: 245 to 247 °C for the first, 109 to 115 °C for the second.

Compared with `CC(C)(C)OC(=O)N1CCCN(c2ccc(C(C)(C)C)cc2)CC1`, `CC1(C)CCC(C)(C)c2cc(CC(=O)Oc3ccc(C(=O)O)cc3)ccc21` is higher in melting point: 62 to 64 °C for the first, 142 to 143 °C for the second.

First: CCCOc1ccccc1CCOc1ccc2c(c1)C=C(C(=O)Nc1ccc(CN(C)C3CCOCC3)cc1)CCS2(=O)=O
Second: CC1(C)CCCC=C1c1ccc(C(=O)N2Cc3cccn3Cc3ccccc32)cc1
The melting point of the first is higher: 161 to 162 °C for the first, 118 °C for the second.

First: O=C(c1ccc2c(c1)OCCO2)c1cc2ccccc2o1
Second: COC(=O)C1Cc2sc3c(c2C1)C(c1ccccc1Cl)=NCC(N(C)C1(C)OCCO1)=N3 (stereo not drawn)
The melting point of the first is lower: 68 to 70 °C for the first, 166 to 168 °C for the second.

First: NC1CCN(c2ccc([N+](=O)[O-])cn2)CC1
Second: O=c1ccc(-c2ccc(OCCCN3CCCCC3)nc2)n[nH]1
The melting point of the first is lower: 115 to 117 °C for the first, 155 to 158 °C for the second.
